In paper PMC6013247, “Preclinical characterization of INCB053914, a novel pan-PIM kinase inhibitor, alone and in combination with anticancer agents, in models of hematologic malignancies” (PLoS ONE, 2018):

Legend:
MOLM-16 (AML) xenografts = experiment: Tumor growth in MOLM-16 (AML) xenograft; assay type: in vivo, mouse
Method: Female immune compromised (severe combined immunodeficiency [SCID]) mice (5–9 weeks of age; Charles River Laboratories, Wilmington, Massachusetts) were inoculated with MOLM-16, KG-1, or KMS-12-BM cells. A cell suspension in Dulbecco’s phosphate-buffered saline (DPBS) (1 × 10^8 cells/ml) was mixed 1:1 (v/v) with matrigel, and 200 μl was injected subcutaneously into the flank of each mouse. Studies of INCB053914 combination regimens used xenograft models derived from INA-6 (MM) cells or Pfeiffer (DLBCL) cells. INA-6 tumor fragments were injected subcutaneously as brei (100 μl in Hank’s balanced salt solution [HBSS, 1:10 v/v]) into the flank of each mouse; Pfeiffer tumor fragments (1 cm × 1 cm) were directly implanted. The treatment of tumor-bearing mice started 7 to 24 days after tumor inoculation for efficacy studies and approximately 14 to 27 days after tumor inoculation for pharmacodynamic studies.
For efficacy studies, mice were sorted to obtain approximately equivalent mean tumor volumes in each group. The starting mean tumor volume in efficacy studies for all groups ranged from 158 mm^3 to 249 mm^3, and groups consisted of eight or nine animals. The mean tumor volume in pharmacodynamic studies for all groups ranged from 114 mm^3 to 833 mm^3, and groups consisted of three to eight animals. […]
Tumor volume was calculated in two dimensions using the equation: volume = [length × (width^2)] / 2, where the larger number was length and the smaller number was width. Effects on tumor growth were reported as percent tumor growth inhibition calculated as (1 − [treatment volume / control volume]) × 100, where control volume was the vehicle/untreated tumor volume on a given day and treatment volume was any treatment group tumor volume on that same day. Statistical significance of differences between treatment and vehicle controls was assessed using analysis of variance single factor test.

RPS6KB1 = RPS6KB1 (Homo sapiens, UniProt P23443); experiment: Kinase selectivity panel; assay type: biochemical; details: [ATP] = 1 mM
[1] = system: BAD phosphorylation in whole blood spiked with KMS-12-BM cells; experiment: BAD phosphorylation in whole blood samples spiked with tumor cells, treated ex vivo; assay type: cell-based; details: Homo sapiens
PIM1 = PIM1 (Homo sapiens, UniProt P11309); experiment: Kinase selectivity panel; assay type: biochemical; details: [ATP] = 1 mM
[2] = system: BAD phosphorylation in MOLM-16 tumors; experiment: Intratumoral pBAD inhibition in xenograft-bearing mice; assay type: in vivo; details: Mus musculus, MOLM16, single oral dose, 4 hours post dose, read-out: IC50, inhibition of BAD phosphorylation relative to vehicle in tumors
Method: (§1) Human MOLM-16 (AML) and KMS-12-BM (MM) xenografts were established in SCID mice. For the evaluation of intratumoral pBAD inhibition, tumor-bearing mice (three to eight mice/group) were treated with a single oral dose of INCB053914 at doses ranging from 0 (vehicle) to 100 mg/kg. In one representative experiment, mice were sacrificed 4 hours after a single dose, and tumors were collected to analyze the levels of pBAD relative to those of vehicle-administered controls. Plasma samples were collected for pharmacokinetic analysis.

[3] = system: BAD phosphorylation in KMS-12-BM tumors; experiment: as above; assay type: in vivo; details: Mus musculus, single oral dose, 4 hours post dose, read-out: IC50, inhibition of BAD phosphorylation relative to vehicle in tumors
Method: as §1

MAPKAPK2 = MAPKAPK2 (Homo sapiens, UniProt P49137); experiment: Kinase selectivity panel; assay type: biochemical; details: [ATP] = 1 mM
PIM2 = PIM2 (Homo sapiens, UniProt Q9P1W9); experiment: Kinase selectivity panel; assay type: biochemical; details: [ATP] = 1 mM
BTK = BTK (Homo sapiens, UniProt Q06187); experiment: Kinase selectivity panel; assay type: biochemical; details: [ATP] = 1 mM
CAMK2D = CAMK2D (Homo sapiens, UniProt Q13557); experiment: Kinase selectivity panel; assay type: biochemical; details: [ATP] = 1 mM
STK4 = STK4 (Homo sapiens, UniProt Q13043); experiment: Kinase selectivity panel; assay type: biochemical; details: [ATP] = 1 mM
[4] = system: primary bone marrow blasts from patients with AML; experiment: Ex vivo treatment of primary bone marrow blasts from patients with AML (Western blot); assay type: cell-based, human
Method: The effects of INCB053914 on pBAD, pp70S6K, and p4E-BP1 levels and on the expression of PIM isozymes also were assessed ex vivo in primary bone marrow blasts (Stem Cell and Xenograft Core, University of Pennsylvania, Philadelphia, Pennsylvania) or in peripheral blood mononuclear cells (PBMCs) derived from whole blood samples obtained with informed written consent from adult patients with AML enrolled in an ongoing phase 1/2 dose-escalation trial, which was conducted in accordance with the study protocol approved by the respective institutional review boards or independent ethics committees. Only samples initially containing >90% viable cells were used (assessed by Trypan Blue staining). Immediately after thawing, the blasts were cultured in RPMI + 10% FBS with INCB053914 for 2 hours at 37°C, before lysis. For determinations of PIM2 expression in PBMCs, whole blood samples were treated overnight with increasing concentrations of INCB053914; total PBMCs were isolated by Ficoll-Paque density gradient centrifugation before lysis. The levels of PIM isozymes and phosphoproteins in cell lysates were detected by Western blotting using the same primary antibodies as above.

FLT3 = FLT3 (Homo sapiens, UniProt P36888); experiment: Kinase selectivity panel; assay type: biochemical; details: [ATP] = 1 mM
FGFR3 = FGFR3 (Homo sapiens, UniProt P22607); experiment: Kinase selectivity panel; assay type: biochemical; details: [ATP] = 1 mM
TGFBR1 = TGFBR1 (Homo sapiens, UniProt P36897); experiment: Kinase selectivity panel; assay type: biochemical; details: [ATP] = 1 mM
PRKAA1 = PRKAA1 (Homo sapiens, UniProt Q13131); experiment: Kinase selectivity panel; assay type: biochemical; details: [ATP] = 1 mM
[5] = system: BAD phosphorylation in whole blood spiked with MOLM-16 cells; experiment: BAD phosphorylation in whole blood samples spiked with tumor cells, treated ex vivo; assay type: cell-based; details: MOLM16
IKKB = IKKB (Homo sapiens, UniProt O14920); experiment: Kinase selectivity panel; assay type: biochemical; details: [ATP] = 1 mM
SRC = SRC (Homo sapiens, UniProt P12931); experiment: Kinase selectivity panel; assay type: biochemical; details: [ATP] = 1 mM
SRC, sequence (P12931 whole entry, species assumed): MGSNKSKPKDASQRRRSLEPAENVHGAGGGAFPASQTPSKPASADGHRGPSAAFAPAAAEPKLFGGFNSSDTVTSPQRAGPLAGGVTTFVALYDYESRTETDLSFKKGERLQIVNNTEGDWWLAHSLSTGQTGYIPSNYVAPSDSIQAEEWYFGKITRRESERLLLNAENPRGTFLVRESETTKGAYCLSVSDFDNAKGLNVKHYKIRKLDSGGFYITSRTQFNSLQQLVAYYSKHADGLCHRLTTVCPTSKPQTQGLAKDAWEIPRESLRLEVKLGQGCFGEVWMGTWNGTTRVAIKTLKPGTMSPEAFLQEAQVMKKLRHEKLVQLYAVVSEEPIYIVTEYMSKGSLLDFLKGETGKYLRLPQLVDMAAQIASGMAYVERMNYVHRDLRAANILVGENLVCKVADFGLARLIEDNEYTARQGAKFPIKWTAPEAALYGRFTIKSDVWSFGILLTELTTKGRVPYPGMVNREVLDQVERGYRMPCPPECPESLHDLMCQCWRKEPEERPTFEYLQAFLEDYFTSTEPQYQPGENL

PRKAA1, sequence (Q13131 whole entry): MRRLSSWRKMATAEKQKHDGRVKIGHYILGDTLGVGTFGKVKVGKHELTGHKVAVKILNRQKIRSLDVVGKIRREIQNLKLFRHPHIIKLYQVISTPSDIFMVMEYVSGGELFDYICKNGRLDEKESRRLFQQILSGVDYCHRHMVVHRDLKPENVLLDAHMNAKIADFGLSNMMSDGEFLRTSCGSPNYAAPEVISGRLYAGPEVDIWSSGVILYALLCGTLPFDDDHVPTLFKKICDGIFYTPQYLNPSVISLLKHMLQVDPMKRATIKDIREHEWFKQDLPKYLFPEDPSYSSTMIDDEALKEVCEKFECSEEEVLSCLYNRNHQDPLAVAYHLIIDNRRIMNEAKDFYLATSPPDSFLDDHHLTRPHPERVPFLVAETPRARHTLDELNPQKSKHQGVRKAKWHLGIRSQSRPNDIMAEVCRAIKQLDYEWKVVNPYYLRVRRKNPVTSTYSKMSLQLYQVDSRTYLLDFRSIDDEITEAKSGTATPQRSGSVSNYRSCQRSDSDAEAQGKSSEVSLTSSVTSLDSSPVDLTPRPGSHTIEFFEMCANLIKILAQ
PRKAA1, sequence (Q9Y478 whole entry partner): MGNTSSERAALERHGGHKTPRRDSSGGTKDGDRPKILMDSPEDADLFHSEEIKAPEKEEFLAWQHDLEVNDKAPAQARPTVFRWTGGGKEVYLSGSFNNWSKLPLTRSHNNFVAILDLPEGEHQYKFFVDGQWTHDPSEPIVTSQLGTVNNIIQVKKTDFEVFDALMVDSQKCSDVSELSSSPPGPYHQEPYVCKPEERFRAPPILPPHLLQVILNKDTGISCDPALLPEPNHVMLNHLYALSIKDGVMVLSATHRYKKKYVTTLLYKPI
PRKAA1, sequence (P54619 whole entry partner): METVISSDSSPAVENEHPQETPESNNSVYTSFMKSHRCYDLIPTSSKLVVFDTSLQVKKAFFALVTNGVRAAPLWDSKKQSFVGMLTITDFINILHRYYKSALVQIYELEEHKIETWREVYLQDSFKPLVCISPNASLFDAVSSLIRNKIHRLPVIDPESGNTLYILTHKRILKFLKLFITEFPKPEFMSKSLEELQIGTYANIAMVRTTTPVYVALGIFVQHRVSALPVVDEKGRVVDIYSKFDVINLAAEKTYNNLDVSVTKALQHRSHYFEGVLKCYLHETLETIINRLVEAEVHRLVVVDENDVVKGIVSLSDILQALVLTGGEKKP
PIM1, sequence (P11309 whole entry): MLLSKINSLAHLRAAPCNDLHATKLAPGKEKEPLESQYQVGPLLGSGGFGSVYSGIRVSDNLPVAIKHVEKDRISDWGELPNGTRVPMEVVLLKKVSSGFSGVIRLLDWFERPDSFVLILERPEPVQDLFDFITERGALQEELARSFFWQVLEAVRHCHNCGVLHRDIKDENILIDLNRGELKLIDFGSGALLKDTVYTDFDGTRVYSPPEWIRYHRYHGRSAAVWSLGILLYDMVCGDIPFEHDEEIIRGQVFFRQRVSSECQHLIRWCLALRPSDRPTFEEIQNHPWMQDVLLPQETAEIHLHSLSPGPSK
STK4, sequence (Q13043 whole entry, species assumed): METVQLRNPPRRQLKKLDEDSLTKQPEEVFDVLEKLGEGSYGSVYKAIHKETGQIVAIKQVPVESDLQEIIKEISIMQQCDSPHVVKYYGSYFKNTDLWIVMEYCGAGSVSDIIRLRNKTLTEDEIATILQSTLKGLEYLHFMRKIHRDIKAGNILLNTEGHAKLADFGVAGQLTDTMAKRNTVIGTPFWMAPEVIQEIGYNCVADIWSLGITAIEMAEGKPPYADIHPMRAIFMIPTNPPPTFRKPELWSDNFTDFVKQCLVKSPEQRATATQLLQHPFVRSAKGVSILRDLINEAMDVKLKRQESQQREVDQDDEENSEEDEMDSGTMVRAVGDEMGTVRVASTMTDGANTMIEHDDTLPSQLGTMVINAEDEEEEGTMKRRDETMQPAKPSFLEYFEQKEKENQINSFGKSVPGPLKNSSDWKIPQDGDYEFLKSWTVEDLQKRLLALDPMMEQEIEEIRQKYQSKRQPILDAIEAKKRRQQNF
IKKB, sequence (O14920 whole entry): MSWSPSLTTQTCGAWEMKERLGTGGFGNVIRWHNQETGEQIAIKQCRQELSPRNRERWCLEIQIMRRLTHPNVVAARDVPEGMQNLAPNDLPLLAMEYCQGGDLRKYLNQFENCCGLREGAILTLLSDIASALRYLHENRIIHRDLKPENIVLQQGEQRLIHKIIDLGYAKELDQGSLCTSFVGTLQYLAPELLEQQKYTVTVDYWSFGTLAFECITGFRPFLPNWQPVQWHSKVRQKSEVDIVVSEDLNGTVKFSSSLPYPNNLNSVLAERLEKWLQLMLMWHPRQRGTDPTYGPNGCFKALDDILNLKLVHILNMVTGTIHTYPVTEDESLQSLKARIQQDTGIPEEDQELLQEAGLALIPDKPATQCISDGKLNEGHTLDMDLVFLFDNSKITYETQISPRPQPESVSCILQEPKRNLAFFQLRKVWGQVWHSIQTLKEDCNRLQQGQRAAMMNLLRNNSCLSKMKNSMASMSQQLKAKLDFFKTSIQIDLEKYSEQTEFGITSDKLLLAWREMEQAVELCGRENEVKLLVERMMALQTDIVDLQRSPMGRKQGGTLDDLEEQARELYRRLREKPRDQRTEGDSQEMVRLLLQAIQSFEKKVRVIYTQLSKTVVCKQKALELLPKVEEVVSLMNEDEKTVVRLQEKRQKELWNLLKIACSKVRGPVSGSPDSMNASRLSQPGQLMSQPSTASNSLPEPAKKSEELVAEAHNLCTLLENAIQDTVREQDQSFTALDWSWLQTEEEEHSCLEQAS
FLT3, sequence (P36888 27-993): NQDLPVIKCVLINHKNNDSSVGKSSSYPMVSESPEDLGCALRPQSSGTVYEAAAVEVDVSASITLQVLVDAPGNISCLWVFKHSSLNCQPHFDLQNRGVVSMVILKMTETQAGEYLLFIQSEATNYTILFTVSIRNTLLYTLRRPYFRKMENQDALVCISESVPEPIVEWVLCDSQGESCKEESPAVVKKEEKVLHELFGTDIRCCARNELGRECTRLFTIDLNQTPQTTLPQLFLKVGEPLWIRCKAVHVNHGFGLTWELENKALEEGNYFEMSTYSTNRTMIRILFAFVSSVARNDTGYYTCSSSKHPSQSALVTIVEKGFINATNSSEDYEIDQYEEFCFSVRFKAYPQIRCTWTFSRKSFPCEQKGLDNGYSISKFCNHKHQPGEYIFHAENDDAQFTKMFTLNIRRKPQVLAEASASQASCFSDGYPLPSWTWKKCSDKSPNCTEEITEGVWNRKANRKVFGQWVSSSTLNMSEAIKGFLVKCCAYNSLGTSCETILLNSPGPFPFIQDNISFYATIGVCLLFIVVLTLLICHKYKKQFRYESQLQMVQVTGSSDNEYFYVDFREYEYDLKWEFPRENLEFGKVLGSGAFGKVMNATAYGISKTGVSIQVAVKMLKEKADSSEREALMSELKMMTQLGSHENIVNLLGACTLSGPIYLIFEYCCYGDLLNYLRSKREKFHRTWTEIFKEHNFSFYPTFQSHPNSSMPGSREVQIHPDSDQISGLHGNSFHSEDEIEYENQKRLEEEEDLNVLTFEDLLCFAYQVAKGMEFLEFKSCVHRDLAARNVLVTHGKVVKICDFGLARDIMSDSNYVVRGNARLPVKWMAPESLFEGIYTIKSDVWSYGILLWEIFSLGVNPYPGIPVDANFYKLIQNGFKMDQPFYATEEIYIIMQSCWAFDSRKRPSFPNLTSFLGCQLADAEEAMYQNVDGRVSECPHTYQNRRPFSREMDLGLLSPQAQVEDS
MAPKAPK2, sequence (P49137 whole entry): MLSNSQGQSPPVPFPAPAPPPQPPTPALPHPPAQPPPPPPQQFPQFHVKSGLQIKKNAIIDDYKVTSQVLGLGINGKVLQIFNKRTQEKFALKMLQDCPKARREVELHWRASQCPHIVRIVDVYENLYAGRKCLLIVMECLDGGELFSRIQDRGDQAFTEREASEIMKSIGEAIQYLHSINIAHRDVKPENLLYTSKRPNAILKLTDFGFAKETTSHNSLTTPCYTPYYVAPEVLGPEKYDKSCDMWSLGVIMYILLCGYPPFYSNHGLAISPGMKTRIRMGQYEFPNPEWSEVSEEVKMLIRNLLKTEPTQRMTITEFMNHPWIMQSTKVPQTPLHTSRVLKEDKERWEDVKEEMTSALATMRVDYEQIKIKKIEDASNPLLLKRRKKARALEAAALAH
PIM2, sequence (Q9P1W9 whole entry): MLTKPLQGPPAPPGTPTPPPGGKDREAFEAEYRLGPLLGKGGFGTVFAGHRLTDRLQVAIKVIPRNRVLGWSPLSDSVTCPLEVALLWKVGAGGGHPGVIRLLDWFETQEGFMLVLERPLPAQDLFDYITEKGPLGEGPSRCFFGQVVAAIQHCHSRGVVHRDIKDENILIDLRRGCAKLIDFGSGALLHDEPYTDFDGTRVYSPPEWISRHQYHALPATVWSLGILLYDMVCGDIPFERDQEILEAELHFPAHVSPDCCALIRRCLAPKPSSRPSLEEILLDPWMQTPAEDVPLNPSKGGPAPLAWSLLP

With `C[C@H]1CN(c2c(NC(=O)c3ccc(F)c(-c4c(F)cccc4F)n3)cnc3c2CC[C@H]3O)C[C@@H](N)[C@@H]1O.O=P(O)(O)O` [INCB053914, N-((R)-4-((3R,4R,5S)-3-amino-4-hydroxy-5-methylpiperidin-1-yl)-7-hydroxy-6,7-dihydro-5H-cyclopenta[b]pyridin-3-yl)-6-(2,6-difluorophenyl)-5-fluoropicolinamide phosphate] the “lowest dose at which tumor growth inhibition was apparent” value (MOLM-16 (AML) xenografts; MOLM-16 model) was 1 mg/kg, the “maximal tumor growth inhibition” value (MOLM-16 (AML) xenografts; MOLM-16 tumors, 30 mg/kg twice a day orally) was 96% and the “mice with a partial regression (PR)” value (MOLM-16 (AML) xenografts; MOLM-16 tumors, 30 mg/kg twice a day, PR = ≥50% decrease in tumor volume vs treatment start, eight mice/group, 30 mg/kg) was “six of eight”. The IC50 (RPS6KB1) was > 20 µM, the IC50 [1] was 0.134 µM and the IC50 (PIM1) was < 0.012 µM. For the same compound, the IC50 [2] was 0.07 µM, the IC50 [3] was 0.145 µM and the IC50 (MAPKAPK2) was > 20 µM. For the same compound, the IC50 (PIM2) was 0.015 µM, the IC50 (BTK) was > 20 µM and the IC50 (CAMK2D) was > 20 µM. The IC50 (STK4) was > 20 µM, the “patients whose blasts showed decreases in BAD phosphorylation” value [4] was “two of four patients” and the PIM2 expression ([4]; 2 hours) was “increased PIM2 expression”. The “phosphorylation of p70S6K and 4E-BP1” value ([4]; 2 hours) was “decreased phosphorylation of p70S6K and 4E-BP1”, the IC50 (FLT3) was > 20 µM and the IC50 (FGFR3) was > 20 µM. The IC50 (TGFBR1) was > 20 µM, the IC50 (PRKAA1) was > 20 µM and the IC50 [5] was 0.076 µM. For the same compound, the IC50 (IKKB) was > 20 µM and the IC50 (SRC) was > 20 µM.
